These results are taken from ChEMBL document CHEMBL1201862, “PubChem BioAssay data set” (2004).

The structures appear in SMILES notation. The source made the active and inactive calls.

The target in assay [1] is T1, Serine/threonine-protein phosphatase (Candida dubliniensis (strain CD36 / CBS 7987 / NCPF 3949 / NRRLY-17841) (Yeast), UniProt B9W6M3).
T1 sequence (B9W6M3 whole entry): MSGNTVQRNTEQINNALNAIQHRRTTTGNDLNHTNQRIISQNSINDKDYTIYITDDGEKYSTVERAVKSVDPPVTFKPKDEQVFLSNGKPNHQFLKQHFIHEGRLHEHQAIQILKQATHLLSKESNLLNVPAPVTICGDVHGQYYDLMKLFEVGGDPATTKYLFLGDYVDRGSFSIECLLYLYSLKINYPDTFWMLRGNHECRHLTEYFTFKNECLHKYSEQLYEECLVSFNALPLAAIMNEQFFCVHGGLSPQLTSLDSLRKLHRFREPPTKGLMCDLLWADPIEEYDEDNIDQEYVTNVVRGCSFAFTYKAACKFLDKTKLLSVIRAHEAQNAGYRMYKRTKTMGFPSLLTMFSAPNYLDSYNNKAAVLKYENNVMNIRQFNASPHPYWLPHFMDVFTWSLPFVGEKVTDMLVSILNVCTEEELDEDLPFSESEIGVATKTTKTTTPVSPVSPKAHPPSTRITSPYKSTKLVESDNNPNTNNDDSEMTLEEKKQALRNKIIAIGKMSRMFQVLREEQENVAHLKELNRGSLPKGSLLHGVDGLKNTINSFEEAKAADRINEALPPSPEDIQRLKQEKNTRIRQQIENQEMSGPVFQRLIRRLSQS
Put plainly: calcineurin pathway inhibitors in yeast reporter, dose response, S. cerevisiae, CDRE-lacZ, luminescence, secondary (AID 2388).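 Note: yeast reporter cells carrying a calcineurin-responsive lacZ construct stimulated with calcium chloride; luminescent beta-galactosidase reporter signal in whole cells rather than isolated phosphatase activity; potency for inhibition where a drop in reporter signal means calcineurin blockade.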 The assay is classed as functional, cell-based.

Assay [2] has as its target T1, Serine/threonine-protein phosphatase. Put plainly: Fluorescence Cell-Based Secondary Assay to Identify Inhibitors of Calcineurin. [Related pubchem assays (depositor defined):AID1979, AID2007]. Type of assay: functional.
For the next assay, the system named is H9c2. Description: cells. Type of assay: functional, cell-based. The note with it: Rattus norvegicus, H9c2, Myocardium.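 Note: confirmatory concentration-response retest of ultra-high-throughput screening hits for modulation of myocardial damage; cell death induced by hydrogen peroxide oxidative stress; compound pretreatment for 60 min then peroxide exposure for 2 h; potency is for protecting the cells against peroxide damage rather than for killing them.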
Assay [3] has as its target cGMP-dependent protein kinase 1 (Homo sapiens, UniProt Q13976). The assay is classed as functional.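 Note: value from a kinome panel screen with PRKG1 as the panel member.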
Assay [4] has as its target RAC-gamma serine/threonine-protein kinase (Homo sapiens, UniProt Q9Y243). The assay is classed as functional.
The target in assay [5] is Serine/threonine-protein kinase PLK4 (Homo sapiens, UniProt O00444). The assay is classed as functional.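 Note: PLK4 measured as one member of a kinome-wide kinase profiling panel.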
Chain of Serine/threonine-protein kinase PLK4 (O00444 whole entry): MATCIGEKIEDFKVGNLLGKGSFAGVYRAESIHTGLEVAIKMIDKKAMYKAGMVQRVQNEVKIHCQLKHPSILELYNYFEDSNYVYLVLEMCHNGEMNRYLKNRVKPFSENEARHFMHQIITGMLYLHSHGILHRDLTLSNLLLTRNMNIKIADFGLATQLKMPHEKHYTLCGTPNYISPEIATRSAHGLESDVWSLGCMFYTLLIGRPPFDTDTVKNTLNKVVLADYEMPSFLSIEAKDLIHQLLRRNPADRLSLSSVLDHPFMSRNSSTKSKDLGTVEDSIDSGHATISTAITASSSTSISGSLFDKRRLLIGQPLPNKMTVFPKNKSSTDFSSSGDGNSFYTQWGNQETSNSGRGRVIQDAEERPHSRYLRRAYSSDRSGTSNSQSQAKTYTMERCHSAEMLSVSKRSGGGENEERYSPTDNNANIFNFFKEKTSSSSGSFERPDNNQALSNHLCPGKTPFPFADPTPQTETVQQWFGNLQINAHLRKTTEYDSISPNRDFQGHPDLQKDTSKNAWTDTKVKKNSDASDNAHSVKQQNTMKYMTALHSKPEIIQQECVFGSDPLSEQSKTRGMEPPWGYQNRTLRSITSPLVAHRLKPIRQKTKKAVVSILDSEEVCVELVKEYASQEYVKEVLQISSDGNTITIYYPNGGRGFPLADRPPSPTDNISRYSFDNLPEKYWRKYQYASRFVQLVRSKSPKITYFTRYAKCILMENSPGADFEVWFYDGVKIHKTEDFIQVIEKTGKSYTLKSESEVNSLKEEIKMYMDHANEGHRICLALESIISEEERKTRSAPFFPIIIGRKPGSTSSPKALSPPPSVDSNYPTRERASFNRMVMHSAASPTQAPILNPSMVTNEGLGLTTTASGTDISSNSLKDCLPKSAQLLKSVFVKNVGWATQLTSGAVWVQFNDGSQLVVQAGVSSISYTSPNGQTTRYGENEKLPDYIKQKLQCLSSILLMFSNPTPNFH
Assay [6] concerns the target Serine/threonine-protein kinase D2 (Homo sapiens, UniProt Q9BZL6). Type of assay: functional.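 Note: measured against PRKD2 as one member of a kinome-wide kinase profiling panel.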
Another assay addresses Aurora kinase A (Homo sapiens, UniProt O14965). Type of assay: functional.
Assay [7] concerns the target Tyrosine-protein kinase JAK3 (Homo sapiens, UniProt P52333). Type of assay: functional.
Assay [8] addresses Ribosomal protein S6 kinase alpha-5 (Homo sapiens, UniProt O75582). Type of assay: functional.
Assay [9] addresses Serine/threonine-protein kinase TAO1 (Homo sapiens, UniProt Q7L7X3). Type of assay: functional.
For assay [10], the target named is Tyrosine-protein kinase Srms (Homo sapiens, UniProt Q9H3Y6). Type of assay: functional.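 Note: SRMS measured as one member of a kinome-wide kinase profiling panel.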
Chain of Tyrosine-protein kinase Srms (Q9H3Y6 whole entry): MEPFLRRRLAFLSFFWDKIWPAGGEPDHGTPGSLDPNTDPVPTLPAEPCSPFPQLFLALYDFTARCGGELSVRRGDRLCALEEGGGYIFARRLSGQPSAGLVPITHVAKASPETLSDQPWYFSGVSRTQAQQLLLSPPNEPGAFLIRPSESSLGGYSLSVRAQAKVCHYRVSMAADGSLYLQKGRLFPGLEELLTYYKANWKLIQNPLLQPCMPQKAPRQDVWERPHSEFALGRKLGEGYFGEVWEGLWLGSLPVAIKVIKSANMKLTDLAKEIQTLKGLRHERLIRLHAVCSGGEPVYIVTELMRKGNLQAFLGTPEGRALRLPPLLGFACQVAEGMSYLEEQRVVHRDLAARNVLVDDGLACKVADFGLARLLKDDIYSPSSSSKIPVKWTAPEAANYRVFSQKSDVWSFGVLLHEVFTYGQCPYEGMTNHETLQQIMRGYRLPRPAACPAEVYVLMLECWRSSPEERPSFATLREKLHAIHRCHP
The target of assay [11] is Serine/threonine-protein kinase Chk1 (Homo sapiens, UniProt O14757). Type of assay: functional.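 Note: measured as one member of a kinome-wide kinase profiling panel.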
Chain of Serine/threonine-protein kinase Chk1 (O14757 whole entry): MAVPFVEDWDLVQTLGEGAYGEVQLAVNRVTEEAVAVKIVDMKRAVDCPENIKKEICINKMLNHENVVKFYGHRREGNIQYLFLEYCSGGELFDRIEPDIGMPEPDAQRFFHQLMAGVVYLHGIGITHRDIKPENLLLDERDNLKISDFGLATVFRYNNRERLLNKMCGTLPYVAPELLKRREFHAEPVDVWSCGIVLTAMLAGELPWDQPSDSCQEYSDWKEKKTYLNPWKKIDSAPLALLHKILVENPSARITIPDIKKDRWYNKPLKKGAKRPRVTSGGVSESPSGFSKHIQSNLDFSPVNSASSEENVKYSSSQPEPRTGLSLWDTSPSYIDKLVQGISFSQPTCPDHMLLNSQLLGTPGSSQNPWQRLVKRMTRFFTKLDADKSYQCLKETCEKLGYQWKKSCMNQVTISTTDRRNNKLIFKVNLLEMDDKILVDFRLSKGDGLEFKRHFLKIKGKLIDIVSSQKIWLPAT
Assay [12] deals with Mitogen-activated protein kinase 1 (Homo sapiens, UniProt P28482). Type of assay: functional.
Assay [13] addresses Dual specificity tyrosine-phosphorylation-regulated kinase 4 (Homo sapiens, UniProt Q9NR20). The assay is classed as functional.
In assay [14] the target is Maternal embryonic leucine zipper kinase (Homo sapiens, UniProt Q14680). The assay is classed as functional.
The target in assay [15] is Tyrosine-protein kinase Fer (Homo sapiens, UniProt P16591). Type of assay: functional.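 Note: FER tested as one member of a kinome panel.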
Assay [16] deals with Homeodomain-interacting protein kinase 4 (Homo sapiens, UniProt Q8NE63). The assay is classed as functional.
Chain of Homeodomain-interacting protein kinase 4 (Q8NE63 whole entry): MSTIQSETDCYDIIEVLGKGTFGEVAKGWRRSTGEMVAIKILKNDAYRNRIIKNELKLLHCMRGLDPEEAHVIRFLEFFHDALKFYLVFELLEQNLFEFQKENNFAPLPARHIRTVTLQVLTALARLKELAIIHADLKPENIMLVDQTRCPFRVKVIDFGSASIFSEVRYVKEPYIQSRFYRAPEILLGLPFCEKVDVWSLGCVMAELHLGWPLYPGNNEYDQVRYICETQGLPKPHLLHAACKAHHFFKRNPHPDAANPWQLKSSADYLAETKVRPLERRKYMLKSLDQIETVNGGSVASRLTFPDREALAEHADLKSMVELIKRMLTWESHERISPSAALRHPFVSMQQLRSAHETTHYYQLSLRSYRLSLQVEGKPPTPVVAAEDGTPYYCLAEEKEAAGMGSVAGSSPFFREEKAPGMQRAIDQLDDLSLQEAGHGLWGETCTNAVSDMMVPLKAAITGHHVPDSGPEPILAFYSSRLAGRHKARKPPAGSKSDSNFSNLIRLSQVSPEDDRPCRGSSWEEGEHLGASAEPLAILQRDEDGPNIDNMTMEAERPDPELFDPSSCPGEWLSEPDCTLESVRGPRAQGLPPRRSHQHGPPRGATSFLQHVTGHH
Assay [17] addresses BDNF/NT-3 growth factors receptor (Homo sapiens, UniProt Q16620). The assay is classed as functional.
Assay [18] deals with Mitogen-activated protein kinase kinase kinase kinase 4 (Homo sapiens, UniProt O95819). Type of assay: functional.
The target in assay [19] is Serine/threonine-protein kinase BRSK1 (Homo sapiens, UniProt Q8TDC3). Type of assay: functional.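 Note: measured within a kinome-wide kinase panel, with the target listed as KIAA1811.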

Chain of Tyrosine-protein kinase JAK3 (P52333 whole entry): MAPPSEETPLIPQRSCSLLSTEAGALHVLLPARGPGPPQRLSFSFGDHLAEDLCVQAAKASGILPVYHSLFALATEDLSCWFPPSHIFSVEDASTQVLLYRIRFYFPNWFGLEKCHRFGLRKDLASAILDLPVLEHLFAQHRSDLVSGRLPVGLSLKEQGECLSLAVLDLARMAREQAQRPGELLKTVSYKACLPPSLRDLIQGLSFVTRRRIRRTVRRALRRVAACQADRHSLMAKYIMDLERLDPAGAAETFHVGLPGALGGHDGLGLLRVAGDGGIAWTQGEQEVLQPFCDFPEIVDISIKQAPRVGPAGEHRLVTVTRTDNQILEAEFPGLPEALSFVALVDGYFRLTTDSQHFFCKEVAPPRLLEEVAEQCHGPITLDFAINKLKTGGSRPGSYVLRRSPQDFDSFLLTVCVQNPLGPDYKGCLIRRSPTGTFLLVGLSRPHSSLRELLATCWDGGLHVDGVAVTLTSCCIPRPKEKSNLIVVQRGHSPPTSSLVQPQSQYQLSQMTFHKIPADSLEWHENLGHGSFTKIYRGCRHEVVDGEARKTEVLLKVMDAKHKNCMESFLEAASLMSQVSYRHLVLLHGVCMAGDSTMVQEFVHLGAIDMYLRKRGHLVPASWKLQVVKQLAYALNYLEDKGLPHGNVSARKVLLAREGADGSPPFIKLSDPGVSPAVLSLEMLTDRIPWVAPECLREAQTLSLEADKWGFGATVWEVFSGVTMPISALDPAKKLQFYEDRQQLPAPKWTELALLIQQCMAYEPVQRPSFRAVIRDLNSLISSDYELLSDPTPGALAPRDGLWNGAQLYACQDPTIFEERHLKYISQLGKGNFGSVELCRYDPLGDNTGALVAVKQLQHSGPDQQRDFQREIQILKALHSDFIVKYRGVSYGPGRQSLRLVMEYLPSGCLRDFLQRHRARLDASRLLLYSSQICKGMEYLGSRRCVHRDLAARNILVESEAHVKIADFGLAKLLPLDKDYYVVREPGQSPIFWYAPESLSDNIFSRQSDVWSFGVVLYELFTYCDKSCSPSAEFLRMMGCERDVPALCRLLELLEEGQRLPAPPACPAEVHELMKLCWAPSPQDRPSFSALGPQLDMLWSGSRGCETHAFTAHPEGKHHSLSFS
Chain of Serine/threonine-protein kinase TAO1 (Q7L7X3 whole entry): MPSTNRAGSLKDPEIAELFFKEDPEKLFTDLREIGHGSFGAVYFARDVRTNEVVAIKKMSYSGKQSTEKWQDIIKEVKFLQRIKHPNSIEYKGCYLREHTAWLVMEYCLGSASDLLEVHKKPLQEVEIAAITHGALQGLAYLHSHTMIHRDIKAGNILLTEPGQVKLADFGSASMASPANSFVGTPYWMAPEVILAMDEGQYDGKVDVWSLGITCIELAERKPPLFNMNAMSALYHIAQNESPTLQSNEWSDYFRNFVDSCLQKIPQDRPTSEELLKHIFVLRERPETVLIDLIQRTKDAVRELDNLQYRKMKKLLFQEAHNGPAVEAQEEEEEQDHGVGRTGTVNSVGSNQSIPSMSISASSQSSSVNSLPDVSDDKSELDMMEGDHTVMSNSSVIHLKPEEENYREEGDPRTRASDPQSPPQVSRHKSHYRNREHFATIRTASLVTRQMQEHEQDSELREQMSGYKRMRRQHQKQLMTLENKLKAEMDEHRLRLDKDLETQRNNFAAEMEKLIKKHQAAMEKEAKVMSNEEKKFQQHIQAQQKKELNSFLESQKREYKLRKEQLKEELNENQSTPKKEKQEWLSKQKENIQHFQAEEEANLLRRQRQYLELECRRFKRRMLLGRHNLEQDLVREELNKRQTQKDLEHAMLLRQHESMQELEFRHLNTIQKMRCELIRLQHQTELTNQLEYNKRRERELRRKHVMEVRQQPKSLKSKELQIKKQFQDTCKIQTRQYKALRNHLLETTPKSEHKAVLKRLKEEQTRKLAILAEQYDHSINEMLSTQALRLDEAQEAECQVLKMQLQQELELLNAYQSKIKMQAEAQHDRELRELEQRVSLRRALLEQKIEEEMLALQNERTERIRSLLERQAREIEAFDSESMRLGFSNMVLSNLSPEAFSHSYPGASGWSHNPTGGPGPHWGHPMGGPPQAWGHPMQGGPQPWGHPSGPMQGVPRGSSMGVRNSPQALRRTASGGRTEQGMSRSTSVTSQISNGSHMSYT
Chain of Aurora kinase A (O14965 whole entry): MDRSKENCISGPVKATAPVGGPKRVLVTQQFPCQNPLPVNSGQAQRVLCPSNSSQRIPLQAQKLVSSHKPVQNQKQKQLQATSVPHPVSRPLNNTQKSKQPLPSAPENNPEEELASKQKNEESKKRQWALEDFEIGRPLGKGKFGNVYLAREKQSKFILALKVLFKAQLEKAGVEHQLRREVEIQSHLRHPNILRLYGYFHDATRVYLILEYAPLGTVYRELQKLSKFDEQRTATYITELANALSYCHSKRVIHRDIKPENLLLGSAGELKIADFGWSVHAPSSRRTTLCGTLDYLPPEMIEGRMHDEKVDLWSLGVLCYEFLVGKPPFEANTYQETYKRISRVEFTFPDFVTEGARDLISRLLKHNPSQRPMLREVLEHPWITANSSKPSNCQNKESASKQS

For the compound `COc1ccc(-c2nnc(NC(=O)c3ccc(F)cc3)o2)cc1`, the EC50 in assay [1] was > 180 µM (inactive); in [2] it was > 285 µM (inactive). In addition, the IC50 in the assay with H9c2 was > 79 µM (inactive).

As for `CCn1c(-c2nonc2N)nc2cnc(Oc3cccc(NC(=O)c4ccc(OCCN5CCOCC5)cc4)c3)cc21` [GSK-269962A], the Ki in [3] was 0.158 µM (active); in assay [4] it was 2 µM (active); in [5], 0.316 µM (active); in [6], 2 µM (active); at Aurora kinase A it was 0.501 µM (active); in [7], > 1.58 µM (inactive). In addition, the inhibitory constant (Ki) in assay [8] is 0.0631 µM (active); in [9], > 10 µM (inactive); in assay [10], > 1.58 µM (inactive); in assay [11], > 7.94 µM (inactive); in [12], > 7.94 µM (inactive); in [13], > 7.94 µM (inactive). Besides, the Ki in assay [14] was > 1.58 µM (inactive); in assay [15] it was > 1.58 µM (inactive); in assay [16], 5.01 µM (active); in [17], > 5.01 µM (inactive); in assay [18], > 10 µM (inactive); in assay [19], > 10 µM (inactive).
